Measured values taken from PubChem BioAssay AID256 (DTP/NCI, 2004).
Inconclusive results and toxic doses are left out. The calls were made as follows: active = survival T/C of 150% or more; inactive = T/C below 125% in these data.

Tested on: CD2F1 mice, L1210 leukemia ip, survival T/C
Assay: NCI In Vivo Anticancer Drug Screen. Data for tumor model L1210 Leukemia (intraperitoneal) in CD2F1 (CDF1) mice
Conditions: higher = longer survival
Summary of the method: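 Transplantable tumor in mice; compound-treated vs vehicle-treated groups. Read-out = treated/control ratio of the measured endpoint.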

[1] = endpoint: mean survival time, dose: 100.0 mg/kg/injection, schedule: Q01DX009 (ip), vehicle: saline with Tween-80
[2] = endpoint: mean survival time, dose: 100.0 mg/kg/injection, schedule: Q04DX003 (ip), vehicle: saline with Tween-80
[3] = endpoint: mean survival time, dose: 200.0 mg/kg/injection, schedule: Q01DX009 (ip), vehicle: saline with Tween-80
[4] = endpoint: mean survival time, dose: 200.0 mg/kg/injection, schedule: Q04DX003 (ip), vehicle: saline with Tween-80
[5] = endpoint: mean survival time, dose: 400.0 mg/kg/injection, schedule: Q01DX009 (ip), vehicle: saline with Tween-80
[6] = endpoint: mean survival time, dose: 400.0 mg/kg/injection, schedule: Q04DX003 (ip), vehicle: saline with Tween-80
[7] = endpoint: mean survival time, dose: 12.5 mg/kg/injection, schedule: Q01DX009 (ip), vehicle: saline with Tween-80
[8] = endpoint: mean survival time, dose: 25.0 mg/kg/injection, schedule: Q01DX009 (ip), vehicle: saline with Tween-80

Measured: T/C

CCCCOc1nc(-c2ccncc2)nc(N(C)C)n1
inactive: endpoint: mean survival time, dose: 16.0 mg/kg/injection, schedule: Q04DX002 (ip), vehicle: saline 92 % of control | endpoint: mean survival time, dose: 31.0 mg/kg/injection, schedule: Q04DX002 (ip), vehicle: saline 92 % of control | endpoint: mean survival time, dose: 63.0 mg/kg/injection, schedule: Q04DX002 (ip), vehicle: saline 100 % of control | endpoint: mean survival time, dose: 100.0 mg/kg/injection, schedule: Q01DX002 (ip), vehicle: saline 100 % of control

Clc1ccc(SC=C(Sc2ccc(Cl)cc2)Sc2ccc(Cl)cc2)cc1
inactive: endpoint: mean survival time, dose: 100.0 mg/kg/injection, schedule: Q04DX002 (ip), vehicle: other 94 % of control | endpoint: mean survival time, dose: 200.0 mg/kg/injection, schedule: Q04DX002 (ip), vehicle: other 94 % of control | endpoint: mean survival time, dose: 400.0 mg/kg/injection, schedule: Q04DX002 (ip), vehicle: other 87 % of control

CCCCCCCCOC(=O)c1ccccc1C(=O)OCCCCCCCC
inactive: [1] 110 % of control | [2] 98 % of control | [3] 102 % of control | [4] 93 % of control | [5] 98 % of control | [6] 90 % of control

OC(c1cc2ccc(C(F)(F)F)cc2c2cc(C(F)(F)F)ccc12)C1CCCCN1 (stereo not given)
inactive: endpoint: mean survival time, dose: 9.4 mg/kg/injection, schedule: Q01DX009 (ip), vehicle: saline 101 % of control | endpoint: mean survival time, dose: 18.8 mg/kg/injection, schedule: Q01DX009 (ip), vehicle: saline 102 % of control | endpoint: mean survival time, dose: 37.5 mg/kg/injection, schedule: Q01DX009 (ip), vehicle: saline 96 % of control

CC(C)(C)C1CCC(=O)C1 (stereo not given)
inactive: [7] 87 % of control | [8] 95 % of control

C1CC[N-]CC1.C1CC[N-]CC1.C1CC[N-]CC1.[Cl][Rh]([Cl])[Cl]
inactive: [7] 99 % of control | [8] 99 % of control

CCOC(=O)C(CC1OCCO1)C1=NC(C)(C)CC(C)O1 (stereo not given)
inactive: endpoint: mean survival time, dose: 100.0 mg/kg/injection, schedule: Q01DX001 (ip), vehicle: acetone 93 % of control | endpoint: mean survival time, dose: 200.0 mg/kg/injection, schedule: Q01DX001 (ip), vehicle: acetone 94 % of control

CC(=O)N(O)CCCCCNC(=O)CCC(=O)N(O)CCCCCNC(=O)CCC(=O)N(O)CCCCCN
inactive: endpoint: mean survival time, dose: 125.0 mg/kg/injection, schedule: Q03HX024 (ip), vehicle: water 102 % of control | endpoint: mean survival time, dose: 188.0 mg/kg/injection, schedule: Q03HX024 (ip), vehicle: water 97 % of control | endpoint: mean survival time, dose: 280.0 mg/kg/injection, schedule: Q03HX024 (ip), vehicle: water 104 % of control

O=C(C[n+]1cc(Br)cc2ccccc21)c1ccc(O)c(O)c1
inactive: endpoint: mean survival time, dose: 100.0 mg/kg/injection, schedule: Q01DX009 (ip), vehicle: saline 110 % of control | endpoint: mean survival time, dose: 200.0 mg/kg/injection, schedule: Q01DX009 (ip), vehicle: saline 111 % of control | endpoint: mean survival time, dose: 400.0 mg/kg/injection, schedule: Q01DX009 (ip), vehicle: saline 102 % of control

CC(=O)C(C(C)=O)C1=C(Cl)C(=O)c2ccccc2C1=O
inactive: endpoint: mean survival time, dose: 75.0 mg/kg/injection, schedule: Q01DX001 (ip), vehicle: other 94 % of control | endpoint: mean survival time, dose: 150.0 mg/kg/injection, schedule: Q01DX001 (ip), vehicle: other 100 % of control | endpoint: mean survival time, dose: 300.0 mg/kg/injection, schedule: Q01DX001 (ip), vehicle: other 97 % of control

Nc1ccc(-c2ccc(N)c(Cl)c2)cc1Cl
inactive: endpoint: mean survival time, dose: 100.0 mg/kg/injection, schedule: Q01DX009 (ip), vehicle: Klucel (hydroxypropylcellulose) (HPC) 105 % of control | endpoint: mean survival time, dose: 200.0 mg/kg/injection, schedule: Q01DX009 (ip), vehicle: Klucel (hydroxypropylcellulose) (HPC) 103 % of control | endpoint: mean survival time, dose: 400.0 mg/kg/injection, schedule: Q01DX009 (ip), vehicle: Klucel (hydroxypropylcellulose) (HPC) 100 % of control

COc1ccc(NC(=O)C(c2ccccc2)c2ccccc2)cc1
inactive: [1] 105 % of control | [3] 102 % of control | [5] 92 % of control

CCC[CH2][Sn]([CH2]CCC)[CH2]CCC.CCC[CH2][Sn]([CH2]CCC)[CH2]CCC
inactive: endpoint: mean survival time, dose: 12.5 mg/kg/injection, schedule: Q04DX003 (ip), vehicle: Klucel (hydroxypropylcellulose) (HPC) 93 % of control | endpoint: mean survival time, dose: 25.0 mg/kg/injection, schedule: Q04DX003 (ip), vehicle: saline 97 % of control | endpoint: mean survival time, dose: 50.0 mg/kg/injection, schedule: Q04DX003 (ip), vehicle: saline 97 % of control

c1ccc2c(c1)nnn1c3ncccc3nc21
inactive: endpoint: mean survival time, dose: 75.0 mg/kg/injection, schedule: Q01DX001 (ip), vehicle: saline 98 % of control | endpoint: mean survival time, dose: 150.0 mg/kg/injection, schedule: Q01DX001 (ip), vehicle: saline 92 % of control | endpoint: mean survival time, dose: 300.0 mg/kg/injection, schedule: Q01DX001 (ip), vehicle: saline 93 % of control

CN(CC(=O)O)C(=S)c1ccccc1
inactive: [2] 98 % of control | [4] 104 % of control | [6] 95 % of control

NC(=O)c1csc(COC(CO)CO)n1
inactive: endpoint: median survival time, dose: 15.38 mg/kg/injection, schedule: Q01DX009 (ip), vehicle: water 93 % of control | endpoint: median survival time, dose: 30.75 mg/kg/injection, schedule: Q01DX009 (ip), vehicle: water 97 % of control | endpoint: median survival time, dose: 61.5 mg/kg/injection, schedule: Q01DX009 (ip), vehicle: water 101 % of control | endpoint: median survival time, dose: 123.0 mg/kg/injection, schedule: Q01DX009 (ip), vehicle: water 100 % of control

CN(C)c1ccc(N=Nc2ccc(S(=O)(=O)O)cc2)cc1.CN(C)c1ccc(N=Nc2ccc(S(=O)(=O)O)cc2)cc1.O.O.[NH-]C1CCCCC1[NH-].[Pt+2]
inactive: endpoint: median survival time, dose: 3.12 mg/kg/injection, schedule: Q04DX003 (ip), vehicle: saline 96 % of control | endpoint: median survival time, dose: 6.25 mg/kg/injection, schedule: Q04DX003 (ip), vehicle: saline 106 % of control | endpoint: median survival time, dose: 12.5 mg/kg/injection, schedule: Q04DX003 (ip), vehicle: saline 101 % of control | endpoint: median survival time, dose: 25.0 mg/kg/injection, schedule: Q04DX003 (ip), vehicle: saline 100 % of control | endpoint: median survival time, dose: 50.0 mg/kg/injection, schedule: Q04DX003 (ip), vehicle: saline 98 % of control | endpoint: median survival time, dose: 100.0 mg/kg/injection, schedule: Q04DX003 (ip), vehicle: saline 105 % of control | endpoint: median survival time, dose: 200.0 mg/kg/injection, schedule: Q04DX003 (ip), vehicle: saline 115 % of control

O=C(CCCC(Br)c1ccccc1)c1ccccc1 (stereo not given)
inactive: endpoint: mean survival time, dose: 100.0 mg/kg/injection, schedule: Q01DX001 (ip), vehicle: saline with Tween-80 90 % of control | endpoint: mean survival time, dose: 400.0 mg/kg/injection, schedule: Q01DX001 (ip), vehicle: saline with Tween-80 95 % of control

O=C(O)c1ccccc1NO
inactive: [2] 90 % of control | [4] 98 % of control | [6] 90 % of control

Cc1ccc(N)nc1[N+](=O)[O-]
inactive: endpoint: mean survival time, dose: 100.0 mg/kg/injection, schedule: Q01DX009 (ip), vehicle: other 100 % of control | endpoint: mean survival time, dose: 100.0 mg/kg/injection, schedule: Q04DX003 (ip), vehicle: other 102 % of control | endpoint: mean survival time, dose: 200.0 mg/kg/injection, schedule: Q01DX009 (ip), vehicle: other 96 % of control | endpoint: mean survival time, dose: 200.0 mg/kg/injection, schedule: Q04DX003 (ip), vehicle: other 96 % of control | endpoint: mean survival time, dose: 400.0 mg/kg/injection, schedule: Q01DX009 (ip), vehicle: other 100 % of control | endpoint: mean survival time, dose: 400.0 mg/kg/injection, schedule: Q04DX003 (ip), vehicle: other 96 % of control

CC1=C(/C=C/C(C)=N/NC(N)=S)C(C)(C)CCC1
inactive: [7] 106 % of control | [8] 115 % of control | endpoint: mean survival time, dose: 25.0 mg/kg/injection, schedule: Q04DX003 (ip), vehicle: saline with Tween-80 98 % of control | endpoint: mean survival time, dose: 50.0 mg/kg/injection, schedule: Q04DX003 (ip), vehicle: saline with Tween-80 104 % of control

Nc1ccc(C(=O)O)c([N+](=O)[O-])c1
inactive: endpoint: mean survival time, dose: 100.0 mg/kg/injection, schedule: Q01DX001 (ip), vehicle: Klucel (hydroxypropylcellulose) (HPC) 96 % of control | endpoint: mean survival time, dose: 200.0 mg/kg/injection, schedule: Q01DX001 (ip), vehicle: Klucel (hydroxypropylcellulose) (HPC) 100 % of control | endpoint: mean survival time, dose: 400.0 mg/kg/injection, schedule: Q01DX001 (ip), vehicle: Klucel (hydroxypropylcellulose) (HPC) 100 % of control
